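Tested at 5 concentrations; 48 h exposure; 96-well plates; endpoints linearly interpolated, else capped at highest concentration. Abbreviation: GI50, concentration required for 50% inhibition of growth.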 The source made the active and inactive calls. Cut-off read from the data, not from the text of the source: active = GI50 up to about 1.1 µM and inactive = higher. Numbered stars: 1 amine (or outer) side, 2 acyl side, 3 side chain; on linkers, the order of the positions; unused ones are H or OH. Bridge positions count the residues as written; N and C are the ends. Square brackets hold non-standard residues; d marks the D form. Peptide text beside a SMILES is read from it. * marks the point of attachment. ξ: configuration not given here. X33 = O=C(C(CCCCNO[*:3])N[*:1])[*:2]; Fmoc = O=C(OCC1c2ccccc2-c2ccccc21)*; ξW = NC(Cc1c[nH]c2ccccc12)C(=O)O; ξP = O=C(O)C1CCCN1
Assays:
Test in all cases: NCI anticancer screen, dose series, 48 h
MDA-MB-231 = tested on: MDA-MB-231
NCI-H226 = tested on: NCI-H226
SK-OV-3 = tested on: SK-OV-3
M14 = tested on: M14
HCC 2998 = tested on: HCC 2998
SF-268 = tested on: SF-268
KM12 = tested on: KM12
UACC-62 = tested on: UACC-62
HOP-92 = tested on: HOP-92
COLO 205 = tested on: COLO 205
NCI/ADR-RES = tested on: NCI/ADR-RES
LOX IMVI = tested on: LOX IMVI
T47D = tested on: T47D
A549 = tested on: A549
OVCAR-8 = tested on: OVCAR-8
UO-31 = tested on: UO-31
SNB-19 = tested on: SNB-19
SK-MEL-2 = tested on: SK-MEL-2
SF-539 = tested on: SF-539
SK-MEL-28 = tested on: SK-MEL-28

Row | SMILES | GI50 (MDA-MB-231) | GI50 (NCI-H226) | GI50 (SK-OV-3) | GI50 (M14) | GI50 (HCC 2998) | GI50 (SF-268) | GI50 (KM12) | GI50 (UACC-62) | GI50 (HOP-92) | GI50 (COLO 205) | GI50 (NCI/ADR-RES) | GI50 (LOX IMVI) | GI50 (T47D) | GI50 (A549) | GI50 (OVCAR-8) | GI50 (UO-31) | GI50 (SNB-19) | GI50 (SK-MEL-2) | GI50 (SF-539) | GI50 (SK-MEL-28)
1 | C=C(C)C1CC=C(C)C2(C1)OCC(C)(C)C(C)O2 (stereo not given) | 21.7 µM (inactive) | 18.3 µM (inactive) | 23.4 µM (inactive) | 22.2 µM (inactive) | 28.3 µM (inactive) | 19.8 µM (inactive) | 16.9 µM (inactive) | 15.8 µM (inactive) | 11.2 µM (inactive) | 18.1 µM (inactive) | 17.9 µM (inactive) | 17.5 µM (inactive) | 18.4 µM (inactive) | 17.3 µM (inactive) | 16.5 µM (inactive) | 20.3 µM (inactive) | 18.3 µM (inactive) | 17.8 µM (inactive) | 22.2 µM (inactive) | 24 µM (inactive)
2 | COC(=O)C1Cc2cccc(C)c2C1 (stereo not given) | > 100 µM (inactive) | > 100 µM (inactive) | > 100 µM (inactive) | > 100 µM (inactive) | > 100 µM (inactive) | > 100 µM (inactive) | > 100 µM (inactive) | > 100 µM (inactive) | > 100 µM (inactive) | > 100 µM (inactive) | 62.2 µM (inactive) | 42 µM (inactive) | > 100 µM (inactive) | > 100 µM (inactive) | > 100 µM (inactive) | > 100 µM (inactive) | > 100 µM (inactive) | > 100 µM (inactive) | > 100 µM (inactive) | > 100 µM (inactive)
3 | CCCC(=O)OCC1OC(n2cc(F)c(=O)[nH]c2=O)CC1O (stereo not given) | > 9.14 µM (inactive) | > 7.57 µM (inactive) | > 4.14 µM (inactive) | 0.314 µM (active) | 0.00381 µM (active) | 0.0306 µM (active) | > 10 µM (inactive) | 0.126 µM (active) | 1.1 µM (active) | 2.22 µM (inactive) | 1.7 µM (inactive) | 0.0303 µM (active) | 6.44 µM (inactive) | 0.0489 µM (active) | 0.118 µM (active) | 0.094 µM (active) | > 10 µM (inactive) | > 9.64 µM (inactive) | 0.00432 µM (active) | > 6.78 µM (inactive)
4 | O=C(N/N=C/c1ccc([N+](=O)[O-])cc1)Nc1ccc(C(=O)O)cc1 | 28.6 µM (inactive) | 22.2 µM (inactive) | 21.3 µM (inactive) | 37.4 µM (inactive) | 20.2 µM (inactive) | 44 µM (inactive) | 27.7 µM (inactive) | 26.4 µM (inactive) | 16.9 µM (inactive) | 23.1 µM (inactive) | 27 µM (inactive) | 31.3 µM (inactive) | 11 µM (inactive) | 35.3 µM (inactive) | 28.6 µM (inactive) | 22.1 µM (inactive) | 38.6 µM (inactive) | 25 µM (inactive) | 49.3 µM (inactive) | 41.7 µM (inactive)
5 | CC(C)NC(=O)OCCN=c1c2ccccc2ccc2ccccc12 | 32.1 µM (inactive) | 30.4 µM (inactive) | 47.6 µM (inactive) | 36 µM (inactive) | 40 µM (inactive) | 63.7 µM (inactive) | 44.7 µM (inactive) | 31.4 µM (inactive) | 27.2 µM (inactive) | 27.7 µM (inactive) | 32.6 µM (inactive) | 44.9 µM (inactive) | 15.6 µM (inactive) | 29.3 µM (inactive) | 57.1 µM (inactive) | 23.5 µM (inactive) | 24.4 µM (inactive) | 23.7 µM (inactive) | 53.2 µM (inactive) | 32.4 µM (inactive)
6 | C/C=C/[C@H]1O[C@@](O)([C@@H](C)[C@H](O)[C@H](C)[C@H]2OC(=O)/C(OC)=C/C(C)=C/[C@@H](C)[C@@H](O)[C@@H](CC)[C@@H](O)[C@H](C)C/C(C)=C/C=C/[C@@H]2OC)C[C@H](OC2CC(O)C(O)C(C)O2)[C@@H]1C (stereo not given in full) | < 0.0075 µM (active) | < 0.0075 µM (active) | 8.04 µM (inactive) | < 0.0075 µM (active) | < 0.0075 µM (active) | < 0.0075 µM (active) | < 0.0075 µM (active) | < 0.0075 µM (active) | 0.19 µM (active) | < 0.0075 µM (active) | < 0.0075 µM (active) | < 0.0075 µM (active) | < 0.0075 µM (active) | < 0.0075 µM (active) | < 0.0075 µM (active) | < 0.0075 µM (active) | 3.42 µM (inactive) | < 0.0075 µM (active) | < 0.0075 µM (active) | 0.114 µM (active)
7 | C=CCc1[nH]c2c(OCc3ccccc3)cc(N(CC=C)C(C)=O)cc2c1C | 10.7 µM (inactive) | 17.6 µM (inactive) | 16.4 µM (inactive) | 10.1 µM (inactive) | 15.1 µM (inactive) | 12.2 µM (inactive) | 13.3 µM (inactive) | 14 µM (inactive) | 12.7 µM (inactive) | 15.2 µM (inactive) | 14.3 µM (inactive) | 12.5 µM (inactive) | 3.79 µM (inactive) | 13.4 µM (inactive) | 13.2 µM (inactive) | 9.08 µM (inactive) | 12.8 µM (inactive) | 12.4 µM (inactive) | 16.3 µM (inactive) | 16.9 µM (inactive)
8 | NC(=O)CNC(=O)C1CCCN1C(=O)C1CCCCNOC(=O)CC[C@@H](NC(=O)OCC2c3ccccc3-c3ccccc32)C(=O)NC(Cc2c[nH]c3ccccc23)C(=O)N1 (stereo not given in full) (Fmoc-[dE][ξW][X33][ξP]G-NH2; ester 1-3) | 30.6 µM (inactive) | > 100 µM (inactive) | > 100 µM (inactive) | 64.4 µM (inactive) | > 100 µM (inactive) | > 100 µM (inactive) | > 100 µM (inactive) | > 100 µM (inactive) | > 100 µM (inactive) | > 100 µM (inactive) | > 100 µM (inactive) | > 100 µM (inactive) | > 100 µM (inactive) | > 100 µM (inactive) | > 100 µM (inactive) | 20.7 µM (inactive) | > 100 µM (inactive) | > 100 µM (inactive) | > 100 µM (inactive) | > 100 µM (inactive)
